Reference: paper PMC7316778 (Nature Communications, 2020)
Several values for one entry are separate records, joined by “and”; a condition that tells them apart may be missing. Equal entries are not always repeated. Where two headings read alike, the source gives them in different places.

What was measured:
[1] = molecular target: T1, endogenous FES^S700C in HL-60 cells (Homo sapiens, UniProt P07332, S700C); test: Gel-based target engagement during PMA-induced macrophage differentiation; type: cell-based; settings: for Relative FES labeling (%): Figure 6b
T1 construct: endogenous in cells; host or cells: HL-60 FES^S700C clone, differentiated to macrophages or neutrophils
T1 sequence (P07332 whole entry S700C): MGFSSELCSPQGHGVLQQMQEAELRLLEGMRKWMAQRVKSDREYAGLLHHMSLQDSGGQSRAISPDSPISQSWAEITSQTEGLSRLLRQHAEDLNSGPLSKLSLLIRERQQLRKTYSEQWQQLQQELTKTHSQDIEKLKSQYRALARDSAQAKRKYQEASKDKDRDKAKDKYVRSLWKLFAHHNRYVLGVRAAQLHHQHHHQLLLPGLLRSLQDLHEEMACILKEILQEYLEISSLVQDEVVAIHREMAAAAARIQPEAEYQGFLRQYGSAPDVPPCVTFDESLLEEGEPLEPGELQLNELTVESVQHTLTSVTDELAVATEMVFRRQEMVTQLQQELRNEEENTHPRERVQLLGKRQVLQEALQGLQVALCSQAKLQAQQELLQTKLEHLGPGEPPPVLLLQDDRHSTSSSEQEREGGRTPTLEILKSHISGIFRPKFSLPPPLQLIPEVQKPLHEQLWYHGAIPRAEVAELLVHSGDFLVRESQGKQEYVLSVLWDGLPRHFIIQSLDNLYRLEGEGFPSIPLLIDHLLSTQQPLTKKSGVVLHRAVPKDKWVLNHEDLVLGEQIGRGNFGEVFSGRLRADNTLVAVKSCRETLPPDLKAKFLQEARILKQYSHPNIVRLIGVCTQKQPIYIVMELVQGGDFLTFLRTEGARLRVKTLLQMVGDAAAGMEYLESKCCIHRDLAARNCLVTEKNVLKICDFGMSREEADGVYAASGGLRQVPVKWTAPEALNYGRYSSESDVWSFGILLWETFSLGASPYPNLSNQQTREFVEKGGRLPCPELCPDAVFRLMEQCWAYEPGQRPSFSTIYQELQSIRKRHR
Method: Cells were pretreated with vehicle or WEL028 (100 or 1000 nM, 1 h) prior to induction of differentiation towards monocytes/macrophages with PMA (16 nM, 48 h). Medium was refreshed with growth medium containing WEL028 and PMA after 24 h to maintain full FES inhibition. […] Threshold for CD11b-positive cells was determined using isotype control antibody. […] Kinases with native cysteine at DFG-1 position are shown in bold. All data represent means ± SEM.

CHEK2 (CHK2) = CHEK2 (CHK2) (Homo sapiens, UniProt O96017); test: SelectScreen kinase assay
Method: (§1) Selectivity profiling assays were performed by the Invitrogen SelectScreen™ Services. […] The concentration of ATP was selected to be equal to the KM, unless indicated otherwise.

FGFR3 = FGFR3 (Homo sapiens, UniProt P22607); test: SelectScreen kinase assay
Sequence of FGFR3 (P22607 23-806): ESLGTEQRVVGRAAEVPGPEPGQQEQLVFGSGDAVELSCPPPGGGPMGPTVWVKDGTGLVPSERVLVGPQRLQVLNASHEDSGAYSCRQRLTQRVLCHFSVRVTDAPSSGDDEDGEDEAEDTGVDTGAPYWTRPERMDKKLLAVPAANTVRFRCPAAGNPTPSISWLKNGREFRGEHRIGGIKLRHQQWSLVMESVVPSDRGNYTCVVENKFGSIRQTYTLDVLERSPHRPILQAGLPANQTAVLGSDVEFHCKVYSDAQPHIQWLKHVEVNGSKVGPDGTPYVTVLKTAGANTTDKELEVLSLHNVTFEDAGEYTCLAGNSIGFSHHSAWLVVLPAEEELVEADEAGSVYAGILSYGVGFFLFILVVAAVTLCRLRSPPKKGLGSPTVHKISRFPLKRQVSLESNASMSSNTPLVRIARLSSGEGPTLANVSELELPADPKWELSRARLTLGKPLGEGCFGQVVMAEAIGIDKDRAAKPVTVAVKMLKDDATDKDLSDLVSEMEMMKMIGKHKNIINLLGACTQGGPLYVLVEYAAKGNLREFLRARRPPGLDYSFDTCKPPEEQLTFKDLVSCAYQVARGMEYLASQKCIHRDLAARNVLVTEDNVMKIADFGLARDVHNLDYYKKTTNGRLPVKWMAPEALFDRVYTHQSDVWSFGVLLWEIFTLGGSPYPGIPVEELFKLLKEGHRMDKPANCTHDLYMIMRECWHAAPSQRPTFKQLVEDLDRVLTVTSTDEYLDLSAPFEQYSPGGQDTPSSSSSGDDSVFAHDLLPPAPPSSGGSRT
Method: as §1

GRK4 = GRK4 (Homo sapiens, UniProt P32298); test: SelectScreen kinase assay; settings: for Inhibition at 1 µM (%): GRK4, ZLYTE, ATP Km app
Sequence of GRK4 (P32298 whole entry): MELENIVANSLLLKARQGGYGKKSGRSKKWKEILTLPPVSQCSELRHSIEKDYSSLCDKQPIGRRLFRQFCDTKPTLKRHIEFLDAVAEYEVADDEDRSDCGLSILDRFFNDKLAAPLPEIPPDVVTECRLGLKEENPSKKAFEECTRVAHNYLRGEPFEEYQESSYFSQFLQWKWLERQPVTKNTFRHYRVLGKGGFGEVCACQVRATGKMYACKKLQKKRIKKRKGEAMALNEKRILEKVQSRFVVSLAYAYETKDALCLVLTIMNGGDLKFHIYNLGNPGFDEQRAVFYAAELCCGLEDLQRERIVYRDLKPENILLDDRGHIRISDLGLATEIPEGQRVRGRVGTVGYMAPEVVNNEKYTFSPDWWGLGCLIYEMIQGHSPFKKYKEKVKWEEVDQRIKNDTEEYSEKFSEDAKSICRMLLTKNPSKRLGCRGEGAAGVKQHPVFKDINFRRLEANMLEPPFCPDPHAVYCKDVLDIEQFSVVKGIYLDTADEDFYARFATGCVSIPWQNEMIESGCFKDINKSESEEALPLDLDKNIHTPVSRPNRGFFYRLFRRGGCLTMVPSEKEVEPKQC
Method: as §1

GRK5 = GRK5 (Homo sapiens, UniProt P34947); test: SelectScreen kinase assay
Method: as §1

GRK6 = GRK6 (Homo sapiens, UniProt P43250); test: SelectScreen kinase assay
Sequence of GRK6 (P43250 whole entry): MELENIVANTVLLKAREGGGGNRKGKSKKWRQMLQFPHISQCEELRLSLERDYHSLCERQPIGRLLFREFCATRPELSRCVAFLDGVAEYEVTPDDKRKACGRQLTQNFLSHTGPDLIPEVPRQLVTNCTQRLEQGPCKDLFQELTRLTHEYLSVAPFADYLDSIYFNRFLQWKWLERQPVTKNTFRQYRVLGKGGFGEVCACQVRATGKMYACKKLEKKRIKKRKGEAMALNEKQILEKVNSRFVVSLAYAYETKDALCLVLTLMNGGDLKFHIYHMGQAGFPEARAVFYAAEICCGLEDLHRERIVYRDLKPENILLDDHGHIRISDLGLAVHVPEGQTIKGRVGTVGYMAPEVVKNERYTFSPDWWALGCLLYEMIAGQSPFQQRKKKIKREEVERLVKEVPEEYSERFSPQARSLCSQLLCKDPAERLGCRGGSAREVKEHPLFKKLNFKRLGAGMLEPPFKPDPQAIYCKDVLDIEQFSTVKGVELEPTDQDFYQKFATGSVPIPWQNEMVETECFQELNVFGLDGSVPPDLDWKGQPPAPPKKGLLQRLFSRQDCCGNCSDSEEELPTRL
Method: as §1

NEK7 = NEK7 (Homo sapiens, UniProt Q8TDX7); test: SelectScreen kinase assay
Sequence of NEK7 (Q8TDX7 whole entry): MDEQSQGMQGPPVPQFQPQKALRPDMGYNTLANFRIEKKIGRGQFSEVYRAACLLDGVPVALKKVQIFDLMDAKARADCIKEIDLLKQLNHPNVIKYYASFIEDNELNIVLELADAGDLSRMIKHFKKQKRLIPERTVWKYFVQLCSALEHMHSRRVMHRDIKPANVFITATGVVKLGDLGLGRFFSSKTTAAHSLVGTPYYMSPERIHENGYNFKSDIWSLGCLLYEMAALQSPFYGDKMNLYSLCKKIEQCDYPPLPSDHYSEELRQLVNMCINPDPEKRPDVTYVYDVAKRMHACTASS
Method: as §1

NUAK2 = molecular target: T2, NUAK2 (Homo sapiens, UniProt Q9H093); test: SelectScreen kinase assay
T2 sequence (Q9H093 1-628): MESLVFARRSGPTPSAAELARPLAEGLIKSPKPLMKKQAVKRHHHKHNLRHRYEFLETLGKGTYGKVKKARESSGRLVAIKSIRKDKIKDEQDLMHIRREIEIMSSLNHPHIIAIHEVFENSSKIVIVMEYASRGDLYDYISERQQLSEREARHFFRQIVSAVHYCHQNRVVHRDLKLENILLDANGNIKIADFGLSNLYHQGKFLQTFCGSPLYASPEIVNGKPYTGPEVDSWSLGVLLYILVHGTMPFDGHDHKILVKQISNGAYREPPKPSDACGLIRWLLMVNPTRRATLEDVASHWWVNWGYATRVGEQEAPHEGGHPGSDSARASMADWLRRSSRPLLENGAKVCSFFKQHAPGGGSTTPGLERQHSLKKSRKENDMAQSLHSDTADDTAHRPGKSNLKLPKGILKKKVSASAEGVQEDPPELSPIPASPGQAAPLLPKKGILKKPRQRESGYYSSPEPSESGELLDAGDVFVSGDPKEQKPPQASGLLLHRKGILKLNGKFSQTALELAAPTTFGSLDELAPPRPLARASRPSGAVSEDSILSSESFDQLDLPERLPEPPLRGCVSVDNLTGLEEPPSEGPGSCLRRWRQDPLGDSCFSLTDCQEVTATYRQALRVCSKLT
Method: as §1

[2] = molecular target: PIK3CA/PIK3R3 (p110 alpha/p55 gamma) (Homo sapiens, UniProt P42336); test: SelectScreen kinase assay; settings: for Inhibition at 1 µM (%): PIK3CA/PIK3R3 (p110 alpha/p55 gamma), Adapta, ATP 10
Sequence of PIK3CA/PIK3R3 (p110 alpha/p55 gamma) (P42336 whole entry): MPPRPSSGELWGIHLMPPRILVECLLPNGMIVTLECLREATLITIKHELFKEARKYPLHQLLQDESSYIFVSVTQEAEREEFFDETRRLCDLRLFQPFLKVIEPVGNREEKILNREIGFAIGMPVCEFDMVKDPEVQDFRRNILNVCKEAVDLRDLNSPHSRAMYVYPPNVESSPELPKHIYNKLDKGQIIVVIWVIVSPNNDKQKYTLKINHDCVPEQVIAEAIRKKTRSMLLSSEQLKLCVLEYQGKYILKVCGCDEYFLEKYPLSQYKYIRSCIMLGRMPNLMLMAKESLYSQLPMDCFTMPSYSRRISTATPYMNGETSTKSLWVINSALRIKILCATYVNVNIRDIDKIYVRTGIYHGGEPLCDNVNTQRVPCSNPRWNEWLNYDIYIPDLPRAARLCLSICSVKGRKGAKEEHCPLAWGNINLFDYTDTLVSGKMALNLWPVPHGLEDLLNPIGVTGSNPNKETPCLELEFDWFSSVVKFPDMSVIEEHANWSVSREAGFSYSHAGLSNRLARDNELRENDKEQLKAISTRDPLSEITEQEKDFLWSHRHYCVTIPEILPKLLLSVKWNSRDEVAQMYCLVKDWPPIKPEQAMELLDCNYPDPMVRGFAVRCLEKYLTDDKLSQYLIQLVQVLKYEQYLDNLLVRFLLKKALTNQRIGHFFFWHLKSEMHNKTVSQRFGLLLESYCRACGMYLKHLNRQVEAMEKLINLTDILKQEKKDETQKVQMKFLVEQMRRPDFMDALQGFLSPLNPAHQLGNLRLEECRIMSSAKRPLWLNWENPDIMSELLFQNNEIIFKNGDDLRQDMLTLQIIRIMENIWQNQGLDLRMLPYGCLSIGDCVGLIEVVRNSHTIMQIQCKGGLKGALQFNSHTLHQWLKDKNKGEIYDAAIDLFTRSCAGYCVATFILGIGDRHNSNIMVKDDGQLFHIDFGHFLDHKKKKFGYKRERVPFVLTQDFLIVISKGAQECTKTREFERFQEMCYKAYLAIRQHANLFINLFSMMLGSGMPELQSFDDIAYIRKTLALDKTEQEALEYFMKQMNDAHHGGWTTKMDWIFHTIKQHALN
Method: as §1

PRKCB1 (PKC beta I) = PRKCB1 (PKC beta I) (Homo sapiens, UniProt P05771); test: SelectScreen kinase assay
Method: as §1

PRKX = PRKX (Homo sapiens, UniProt P51817); test: SelectScreen kinase assay
Sequence of PRKX (P51817 whole entry): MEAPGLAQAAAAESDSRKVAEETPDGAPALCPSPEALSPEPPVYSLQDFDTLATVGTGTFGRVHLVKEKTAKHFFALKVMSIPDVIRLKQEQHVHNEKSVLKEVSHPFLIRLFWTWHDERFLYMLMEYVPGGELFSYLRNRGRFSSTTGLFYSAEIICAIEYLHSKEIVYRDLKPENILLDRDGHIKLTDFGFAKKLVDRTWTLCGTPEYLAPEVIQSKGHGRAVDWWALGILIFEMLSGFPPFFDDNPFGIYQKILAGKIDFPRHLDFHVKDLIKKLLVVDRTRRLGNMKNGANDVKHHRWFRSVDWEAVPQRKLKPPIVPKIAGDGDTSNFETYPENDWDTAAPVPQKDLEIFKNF
Method: as §1

TBK1 = molecular target: T3, TBK1 (Homo sapiens, UniProt Q9UHD2); test: SelectScreen kinase assay
T3 sequence (Q9UHD2 1-729): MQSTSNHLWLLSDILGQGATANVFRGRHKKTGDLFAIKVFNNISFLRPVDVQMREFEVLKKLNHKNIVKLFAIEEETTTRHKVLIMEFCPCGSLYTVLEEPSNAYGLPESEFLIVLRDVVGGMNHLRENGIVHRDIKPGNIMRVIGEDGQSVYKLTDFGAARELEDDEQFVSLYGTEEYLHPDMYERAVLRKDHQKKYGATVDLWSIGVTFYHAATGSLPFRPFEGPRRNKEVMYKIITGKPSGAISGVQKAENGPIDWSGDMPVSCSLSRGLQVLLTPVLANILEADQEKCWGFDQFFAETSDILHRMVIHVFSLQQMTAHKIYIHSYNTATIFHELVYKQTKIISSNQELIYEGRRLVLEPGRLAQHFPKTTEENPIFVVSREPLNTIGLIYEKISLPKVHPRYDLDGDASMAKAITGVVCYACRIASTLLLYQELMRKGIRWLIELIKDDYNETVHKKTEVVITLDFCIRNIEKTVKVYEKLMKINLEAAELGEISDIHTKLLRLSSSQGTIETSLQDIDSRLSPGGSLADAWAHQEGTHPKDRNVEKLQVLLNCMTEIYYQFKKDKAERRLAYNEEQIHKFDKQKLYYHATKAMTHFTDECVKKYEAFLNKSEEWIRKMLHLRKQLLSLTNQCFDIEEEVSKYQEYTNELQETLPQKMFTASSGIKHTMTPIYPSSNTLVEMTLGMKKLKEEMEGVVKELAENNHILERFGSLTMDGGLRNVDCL
Method: as §1

[3] = 1 h, 1 μM WEL028, 1 h preincubation
[4] = read-out: Inhibition at 1 µM (%)
[5] = 1 µM, ZLYTE, ATP Km app, listed as WEL028, 1 µM

Q: With `C#CCOc1ccc(Nc2ncc(Cl)c(Nc3ccccc3NC(=O)C=C)n2)c(OC)c1` [Compound 6] as the compound, how does the “Target engagement of engineered FES” value ([1]; 100 nM WEL028 during PMA-induced differentiation) read?
A: full target engagement

Q: And the “Relative FES labeling (%)” value ([1]; WEL028 100 nM)?
A: 6.297% and 1.811% and 0.4549%

Q: What about the “Relative FES labeling (%)” value ([1]; WEL028 1 µM) of the same compound?
A: -1.423% and -3.177% and -0.4317%

Q: What about the inhibition at 1 µM (CHEK2 (CHK2); [3]) of the same compound?
A: 4%

Q: What about the “Inhibition at 1 µM (%)” value (CHEK2 (CHK2); CHEK2 (CHK2), 1 µM, ZLYTE, ATP Km app) of the same compound?
A: 14%

Q: And the inhibition at 1 µM (FGFR3; [3])?
A: 6%

Q: What about the inhibition at 1 µM (FGFR3; read-out: Inhibition at 1 µM (%), FGFR3, 1 µM, ZLYTE, ATP Km app) of the same compound?
A: 7%

Q: What about the inhibition at 1 µM (GRK4; [3]) of the same compound?
A: -1%

Q: What about the “Inhibition at 1 µM (%)” value (GRK4) of the same compound?
A: -2%

Q: And the “Inhibition at 1 µM (%)” value (GRK4; listed as WEL028, 1 µM)?
A: 1%

Q: What about the inhibition at 1 µM (GRK5; 1 h) of the same compound?
A: 4%

Q: What about the inhibition at 1 µM (GRK5; [4]) of the same compound?
A: 4%

Q: What about the inhibition at 1 µM (GRK6; 1 h) of the same compound?
A: 0%

Q: And the inhibition at 1 µM (GRK6; [4])?
A: 0%

Q: And the inhibition at 1 µM (NEK7; [3])?
A: -3%

Q: And the “Inhibition at 1 µM (%)” value (NEK7; NEK7, 1 µM, ZLYTE, ATP Km app, listed as WEL028, 1 µM)?
A: -2%

Q: And the “Inhibition (%)” value (NUAK2; 1 μM WEL028, 1 h preincubation)?
A: 24%

Q: And the “Inhibition at 1 µM (%)” value (NUAK2; NUAK2, 1 µM, LanthaScreen Binding, listed as WEL028, 1 µM)?
A: 30%

Q: What about the inhibition at 1 µM (NUAK2; read-out: Inhibition at 1 µM (%), NUAK2, 1 µM, LanthaScreen Binding) of the same compound?
A: 18%

Q: What about the inhibition at 1 µM [2, 3] of the same compound?
A: 1%

Q: And the “Inhibition at 1 µM (%)” value [2]?
A: 2%

Q: What about the “Inhibition at 1 µM (%)” value ([2]; listed as WEL028, 1 µM) of the same compound?
A: -1%

Q: What about the inhibition at 1 µM (PRKCB1 (PKC beta I); [3]) of the same compound?
A: 16%

Q: What about the “Inhibition at 1 µM (%)” value (PRKCB1 (PKC beta I); PRKCB1 (PKC beta I), 1 µM, ZLYTE, ATP Km app) of the same compound?
A: 25%

Q: And the “Inhibition at 1 µM (%)” value (PRKX; [5])?
A: -6% and 0%

Q: What about the inhibition at 1 µM (PRKX; [3]) of the same compound?
A: -3%

Q: What about the “Inhibition at 1 µM (%)” value (TBK1; [5]) of the same compound?
A: 6%

Q: What about the inhibition at 1 µM (TBK1; [3]) of the same compound?
A: 7%

Q: And the inhibition at 1 µM (TBK1; read-out: Inhibition at 1 µM (%), 1 µM, ZLYTE, ATP Km app)?
A: 8%
